How the values were obtained:
Human DNA polymerase ι = biological target: T1, Human DNA polymerase ι (Homo sapiens, UniProt Q9UNA4); test: DNA polymerase assay, human pol ι; assay type: biochemical
T1 construct: His6 (C); made in house; host or cells: SF9 insect cells (baculovirus)
T1 sequence (Q9UNA4 1-740): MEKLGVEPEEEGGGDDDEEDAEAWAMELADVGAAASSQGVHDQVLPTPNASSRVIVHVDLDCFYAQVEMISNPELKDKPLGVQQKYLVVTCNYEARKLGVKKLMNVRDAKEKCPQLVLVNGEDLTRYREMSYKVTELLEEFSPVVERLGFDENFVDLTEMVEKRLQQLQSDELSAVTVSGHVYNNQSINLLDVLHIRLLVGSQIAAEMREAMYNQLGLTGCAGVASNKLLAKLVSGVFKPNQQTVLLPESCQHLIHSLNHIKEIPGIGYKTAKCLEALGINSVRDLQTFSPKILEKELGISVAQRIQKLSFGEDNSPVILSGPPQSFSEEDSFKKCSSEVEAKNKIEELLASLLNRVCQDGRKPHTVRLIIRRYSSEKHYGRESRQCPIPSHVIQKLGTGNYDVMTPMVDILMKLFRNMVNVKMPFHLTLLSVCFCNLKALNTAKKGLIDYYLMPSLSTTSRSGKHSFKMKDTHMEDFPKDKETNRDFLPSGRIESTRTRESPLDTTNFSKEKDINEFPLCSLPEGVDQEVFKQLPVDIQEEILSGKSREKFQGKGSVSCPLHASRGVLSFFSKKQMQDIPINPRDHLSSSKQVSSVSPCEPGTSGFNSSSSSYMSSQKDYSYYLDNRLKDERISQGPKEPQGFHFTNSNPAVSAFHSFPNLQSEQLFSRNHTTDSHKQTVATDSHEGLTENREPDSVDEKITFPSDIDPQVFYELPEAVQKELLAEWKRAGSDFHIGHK
Excerpt: Pol α was purified from calf thymus by immuno-affinity column chromatography as described by Tamai et al.. Recombinant rat pol β was purified from E. coli JMpβ5 as described by Date et al.. The human pol γ catalytic gene was cloned into pFastBac. Histidine-tagged enzyme was expressed using the BAC-TO-BAC HT Baculovirus Expression System according to the supplier's manual (LIFE TECHNOLOGIES, MD, USA) and purified using ProBoundresin (Invitrogen Japan, Tokyo, Japan). Human pols δ and ε were purified by the nuclear fractionation of human peripheral blood cancer cells (Molt-4) using the second subunit of pols δ and ε-conjugated affinity column chromatography, respectively. Recombinant human pols η and ι tagged with His6 at their C-terminal were expressed in SF9 insect cells using the baculovirus expression system, and were purified as described previously. A truncated form of pol κ (i.e., hDINB1DC) with 6 x His-tags attached at the C-terminal was overproduced using the BAC-to-BAC Baculovirus Expression System kit (GIBCO BRL, MD, USA) and purified as described previously. […]
For pols, poly(dA)/oligo(dT)12-18 (A/T = 2/1) and dTTP were used as the DNA template-primer and nucleotide (i.e., dNTP) substrate, respectively. […] Activity without the inhibitor was considered 100%, and the remaining activity at each concentration of the inhibitor was determined relative to this value. […]

[1] = biological target: Calf Primase of DNA polymerase α (Bos taurus, UniProt A0A3Q1MF00+A0JNF4); test: Primase activity assay of calf pol α; assay type: biochemical
Chain of Calf Primase of DNA polymerase α (A0AAA9THK8 entry or part of it): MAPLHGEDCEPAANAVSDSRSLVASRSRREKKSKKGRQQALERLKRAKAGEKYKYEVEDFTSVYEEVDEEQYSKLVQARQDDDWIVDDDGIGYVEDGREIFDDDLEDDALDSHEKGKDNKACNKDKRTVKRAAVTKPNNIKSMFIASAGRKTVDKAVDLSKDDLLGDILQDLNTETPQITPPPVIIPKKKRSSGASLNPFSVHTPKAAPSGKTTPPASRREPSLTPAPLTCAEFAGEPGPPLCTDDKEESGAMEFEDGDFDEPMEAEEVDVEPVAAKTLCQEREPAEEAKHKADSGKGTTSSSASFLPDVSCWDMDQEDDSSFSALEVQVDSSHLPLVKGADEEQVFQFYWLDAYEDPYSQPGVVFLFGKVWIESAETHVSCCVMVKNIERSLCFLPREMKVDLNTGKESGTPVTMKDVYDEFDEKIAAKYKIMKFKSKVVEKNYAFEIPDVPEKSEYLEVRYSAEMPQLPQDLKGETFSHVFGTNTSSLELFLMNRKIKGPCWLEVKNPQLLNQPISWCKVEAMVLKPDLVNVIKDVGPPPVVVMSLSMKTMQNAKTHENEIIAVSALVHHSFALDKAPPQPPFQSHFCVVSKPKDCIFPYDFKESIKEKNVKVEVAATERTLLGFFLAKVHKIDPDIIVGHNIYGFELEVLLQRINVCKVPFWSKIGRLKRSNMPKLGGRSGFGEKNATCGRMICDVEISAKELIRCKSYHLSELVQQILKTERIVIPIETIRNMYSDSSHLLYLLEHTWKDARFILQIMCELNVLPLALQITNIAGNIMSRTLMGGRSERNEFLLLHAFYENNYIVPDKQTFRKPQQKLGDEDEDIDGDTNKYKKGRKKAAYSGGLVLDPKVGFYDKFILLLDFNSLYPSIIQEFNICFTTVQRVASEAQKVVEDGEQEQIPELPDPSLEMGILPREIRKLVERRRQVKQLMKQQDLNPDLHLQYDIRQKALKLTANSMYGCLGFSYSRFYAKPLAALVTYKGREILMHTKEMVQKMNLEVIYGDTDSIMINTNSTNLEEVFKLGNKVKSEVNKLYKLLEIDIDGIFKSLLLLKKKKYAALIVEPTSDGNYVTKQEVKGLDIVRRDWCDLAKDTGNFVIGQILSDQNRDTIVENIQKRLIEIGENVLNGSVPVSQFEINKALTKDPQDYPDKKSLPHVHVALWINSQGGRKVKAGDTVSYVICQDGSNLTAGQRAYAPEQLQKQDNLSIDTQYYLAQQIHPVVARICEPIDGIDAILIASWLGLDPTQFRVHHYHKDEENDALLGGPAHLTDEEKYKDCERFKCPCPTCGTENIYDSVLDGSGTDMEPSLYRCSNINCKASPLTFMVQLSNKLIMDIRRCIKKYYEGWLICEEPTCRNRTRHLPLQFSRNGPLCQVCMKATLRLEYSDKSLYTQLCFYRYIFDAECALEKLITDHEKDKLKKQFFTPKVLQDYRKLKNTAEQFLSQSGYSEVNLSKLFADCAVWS
Chain of Calf Primase of DNA polymerase α (A0JNF4 entry or part of it): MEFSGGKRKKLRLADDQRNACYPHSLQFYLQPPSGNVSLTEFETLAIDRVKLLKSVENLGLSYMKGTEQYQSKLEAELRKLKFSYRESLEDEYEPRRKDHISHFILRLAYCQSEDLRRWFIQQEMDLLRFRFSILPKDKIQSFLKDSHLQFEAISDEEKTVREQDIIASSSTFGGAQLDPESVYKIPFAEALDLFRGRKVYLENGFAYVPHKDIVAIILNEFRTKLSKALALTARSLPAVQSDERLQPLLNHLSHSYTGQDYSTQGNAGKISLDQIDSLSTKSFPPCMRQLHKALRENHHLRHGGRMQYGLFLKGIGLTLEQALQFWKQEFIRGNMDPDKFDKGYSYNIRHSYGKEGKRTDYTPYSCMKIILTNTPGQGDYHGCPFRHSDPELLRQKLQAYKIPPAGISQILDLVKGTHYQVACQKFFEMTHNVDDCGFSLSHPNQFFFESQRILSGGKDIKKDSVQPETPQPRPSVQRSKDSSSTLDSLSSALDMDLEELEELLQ
Chain of Calf Primase of DNA polymerase α (Q58D13 whole entry, further chain): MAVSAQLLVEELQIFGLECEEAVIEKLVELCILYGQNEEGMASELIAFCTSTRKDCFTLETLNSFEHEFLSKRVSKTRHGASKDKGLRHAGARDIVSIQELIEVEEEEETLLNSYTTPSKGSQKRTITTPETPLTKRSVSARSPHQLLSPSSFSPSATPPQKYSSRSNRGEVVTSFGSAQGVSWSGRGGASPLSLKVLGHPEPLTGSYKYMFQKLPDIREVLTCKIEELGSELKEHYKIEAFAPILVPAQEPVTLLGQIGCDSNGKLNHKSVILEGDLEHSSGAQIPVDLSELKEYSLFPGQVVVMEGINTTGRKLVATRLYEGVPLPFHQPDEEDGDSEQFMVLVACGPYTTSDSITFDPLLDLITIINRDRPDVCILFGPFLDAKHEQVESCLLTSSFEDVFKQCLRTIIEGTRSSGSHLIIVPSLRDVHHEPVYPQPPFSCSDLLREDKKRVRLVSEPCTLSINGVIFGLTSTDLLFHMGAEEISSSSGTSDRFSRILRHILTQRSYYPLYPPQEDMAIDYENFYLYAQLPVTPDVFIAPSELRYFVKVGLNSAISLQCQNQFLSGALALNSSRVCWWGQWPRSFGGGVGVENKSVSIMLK
Chain of Calf Primase of DNA polymerase α (A0A3Q1MF00 entry or part of it): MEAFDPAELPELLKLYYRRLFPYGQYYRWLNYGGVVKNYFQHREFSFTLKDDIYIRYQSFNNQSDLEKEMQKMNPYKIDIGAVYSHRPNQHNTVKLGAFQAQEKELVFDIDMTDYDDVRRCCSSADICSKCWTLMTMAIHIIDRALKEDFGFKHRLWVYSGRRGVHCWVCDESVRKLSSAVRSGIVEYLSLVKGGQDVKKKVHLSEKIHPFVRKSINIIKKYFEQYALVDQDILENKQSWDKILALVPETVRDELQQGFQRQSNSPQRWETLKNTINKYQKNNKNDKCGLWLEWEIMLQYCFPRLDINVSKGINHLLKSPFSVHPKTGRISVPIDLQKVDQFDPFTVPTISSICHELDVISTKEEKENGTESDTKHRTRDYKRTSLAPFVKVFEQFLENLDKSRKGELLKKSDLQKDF
Procedure: The primase activity of calf pol α, the activities of T7 RNA polymerase, T4 polynucleotide kinase and bovine DNase I were measured in standard assays according to the manufacturer's specifications as described by Tamiya-Koizumi et al., Nakayama et al., Soltis et al., and Lu and Sakaguchi, respectively.

Structure (SMILES): CC1=CC[C@H]2C(C)(C)CCC[C@]2(C)[C@H]1CCCCCCCCCCCCCCCCC(=O)O (relative stereo) [compound 11, (1S*,4aS*,8aS*)-17-(1,4,4a,5,6,7,8,8a-octahydro-2,5,5,8a-tetramethylnaphthalen-1-yl)heptadecanoic acid]
- IC50 (Human DNA polymerase ι): 7.84 ± 0.39 µM
- IC50 [1]: > 200 µM

Reference: publication PMC6253949, “The Inhibitory Action of Kohamaic Acid A Derivatives on Mammalian DNA Polymerase β” (Molecules, 2008)
